A value given as a limit tells only on which side of the number the result lay.

With `Clc1ccc(Nc2nc(-c3cccc(Br)n3)nc3ccccc23)cc1`, the melting point (as a rule, the temperature, or range, at which the solid turns liquid) is 242 to 248 °C.

Molecule `COC(=O)c1cc(N)c(C#N)s1` had a melting point of 187 to 189 °C.

For the molecule `CCOC(=O)c1cn(CC)c2sc(C=O)cc2c1=O`, the melting point worked out at 205 °C.

In the case of `CCOCc1cc2cccc(OC)c2o/c1=N\c1ccccc1`, the melting point lay in the range of 88 to 90 °C.

Turning to `N#Cc1ccccc1NC1CCN(Cc2ccccc2)CC1`, the melting point was 104 to 105 °C.

The molecule `O=C(NCCc1ccc(CN2CCCC2)cc1)N1CCC(c2ccc(Cl)cc2)CC1` gave a melting point of 116 to 117 °C.

Molecule `O=c1[nH]c2cc(Cl)ccc2c(NCc2ccccc2)c1-c1ccccc1` displayed a melting point of 179 °C.

`CSc1ccc(C(=O)NC[C@H]2O[C@@H]2c2ccccc2)cc1` (racemic) came in with a melting point of 110 °C.

For the molecule `COc1ccc(Cn2nnc(-c3ccc(Cl)cc3Cl)c2N)cc1`, the melting point lay within 134 to 137 °C.

For `CCn1nnc(NC(=O)C2c3ccccc3COc3ccccc32)n1` (racemic), the melting point lay within 158 to 159 °C.

As to `O=C1NCc2cccnc2N1c1cccc(I)c1`, the melting point lay in the range of 175 to 177 °C.

`CCC(CC)(CC(=O)Nc1cccc(OCc2ccc3ccccc3n2)c1)C(=O)O`: the melting point lay within 149 to 150 °C.

`O=CNc1ccc(C(=O)N(CCN2CCC(C(=O)c3ccc(F)cc3)CC2)c2cccnc2)cc1`: the melting point is 147 to 148 °C.

The molecule `Cc1cc(-c2nc3ccc(CN4CCOCC4)cc3c(=O)[nH]2)ccn1` came in with a melting point of 267 to 268 °C.

Turning to `CCOC(=O)c1ccc(OC(=O)c2ccc(C(=O)Oc3ccc(C(=O)OCC)cc3)cc2)cc1`, the melting point is 187 to 189 °C.

As for `CNC(=S)N(C)NC(=O)c1cccc(F)c1`, the melting point was 202 to 205 °C.

Turning to `CCCc1c(OCC(O)CSc2ccc(C(=O)CCC(=O)O)cc2F)ccc(C(C)=O)c1O` (centres undefined), the melting point fell in the range of 106 to 109 °C.

Regarding `CN(CCO)c1ccnc(CSc2nc3ccccc3[nH]2)c1Cl`, the melting point lay within 132 to 135 °C.

In turn, `COC1C=C(C)C(=O)CC(C)(C)C1OC(=O)c1ccc(N)cc1` (centres undefined) displayed a melting point of 138 to 161 °C.

As to `O=CNCCNC1=NS(=O)(=O)c2cc(Cl)ccc2N1`, the melting point lay within 245 to 247 °C.

With `CC(C)(C)OC(=O)N1CCC(Oc2cncc(Cl)n2)CC1`, the melting point was 86 to 87 °C.

In turn, `COc1ccc(C(N)CC(=O)O)cc1OC` (centres undefined) had a melting point of 208 to 210 °C.

As for `CCN([C@H]1CC[C@H](c2ccc3[nH]c(=O)oc3c2)CC1)[C@H](C)CCc1ccccc1`, the melting point lay within 139 to 158 °C.

Molecule `CCN(Cc1csc(N)c1C(=O)c1ccc(Cl)cc1)c1ccccc1` yielded a melting point of 130 to 132 °C.

`CC1Cc2cc(S(N)(=O)=O)cc(C(=O)NC3CCN(Cc4ccccc4)CC3)c2O1` (centres undefined): the melting point fell in the range of 226 to 228 °C.

`CCOC(=O)c1c(C(F)F)nc(C(F)(F)F)c(C(=O)OCC)c1C1CC1` showed a melting point of 30 to 32 °C.

`Cc1[nH]c(=O)c2c(ccc3nc(Nc4c(Cl)cccc4Cl)n(C)c32)c1CC(=O)N1CCOCC1` registered a melting point of over 300 °C.

Molecule `CCCCCCCCCCCCCc1c(C(F)(F)F)noc1NS(=O)(=O)c1ccccc1` gave a melting point of 89 °C.

Molecule `Cc1ccc(Oc2noc(=O)n2S(=O)(=O)c2c(C)noc2C)c(C)c1` displayed a melting point of 135 to 136 °C.

As to `COc1ccc(C(=O)c2c(F)cccc2F)c(O)c1`, the melting point fell in the range of 71 to 72 °C.

As to `CC(C)(C)OC(=O)Nc1ccc(Nc2n[nH]c(N)c2C#N)cc1`, the melting point lay in the range of 166 to 168 °C.

`CC(=O)NS(=O)(=O)c1cc(C(=O)CCl)ccc1Cl` showed a melting point of 177 °C.

With `COC(=O)c1cc(OC)c(OCCCN)cc1[N+](=O)[O-]`, the melting point lay within 101 to 103 °C.

With `CC1(C)CCC(C)(C)c2cc(C#Cc3ccc(C(N)=O)cc3)ccc21`, the melting point fell in the range of 220 to 223 °C.

Consider `COc1cc([N+](=O)[O-])ccc1-c1cnn(C)c1`, for which the melting point lay in the range of 132 to 134 °C.

The molecule `O=S(=O)(Cl)c1ccc(Oc2ccc(F)cc2)cc1` returned a melting point of 76 °C.

The molecule `Cc1ccc2c(c1)CC(N1CCN(CCN3CCOC3=O)CC1)c1cc(C)ccc1O2` (centres undefined) displayed a melting point of 145 to 147 °C.

Turning to `Cc1c(-c2ccc(C(=O)c3ccc(-c4sc5ccccc5c4C)nc3)cn2)sc2ccccc12`, the melting point lay within 120 to 121 °C.

For `O=C(O)C1COc2cc(Cl)c(Cl)cc2O1` (centres undefined), the melting point is 155 to 158 °C.

As for `CCCCCCN(Cc1ccc2ccccc2c1)c1c(N[C@@H](Cc2ccccc2)C(=O)O)c(=O)c1=O`, the melting point is 62 to 70 °C.

`CCOC(=O)C(=NO)c1cnsn1` had a melting point of 60 to 66 °C.

The molecule `CN(C)CCCn1c(-c2ccccc2)cc2cc(O)ccc21` displayed a melting point of 130 °C.

The molecule `C#Cc1ccc(C#N)cc1OC` gave a melting point of 105 to 106 °C.

For `CCCN(C1=C(O)C[C@@](CCc2cccc(O)c2)(C2CCCC2)OC1=O)c1ccccc1`, the melting point was 74 to 76 °C.

`Cc1cccc(NC(=O)NC2CN(Cc3ccccc3)c3ccccc3N(CC(=O)c3ccccc3C)C2=O)c1` (centres undefined): the melting point was 169 to 172 °C.

In turn, `CCc1cccc(C)c1CNc1cc(Cn2ccnc2)cn2nc(C)nc12` yielded a melting point of 158 °C.

For the molecule `O=C(C1=C(O)C(=O)N(C2CC2)C1)c1ccc(Cc2ccc(F)cc2)o1`, the melting point is 158 to 159 °C.

Turning to `c1ccc2c(c1)c(-c1nnn[nH]1)cc1nnnn12`, the melting point lay within 250 to 251 °C.

The molecule `N#CCc1nnc2n1-c1sc(Cl)cc1C(c1ccccc1Cl)=NC2` returned a melting point of 217 to 220 °C.

Molecule `CCn1cc(C(=O)O)c(=O)c2ccc(N3CCNCC3)cc21` gave a melting point of 272 to 275 °C.

`CCn1c(=O)c2c(nc(/C=C/c3ccc(OC)c(C)c3OC)n2C)n(CC)c1=O` displayed a melting point of 196 to 197 °C.

The molecule `C=C(C)COc1ccc(C)c2c1C(=O)CC2` came in with a melting point of 74.2 to 75.2 °C.

As to `Cc1cccc2c1C(=O)N(C)Cc1c(-c3noc(C4CC4)n3)ncn1-2`, the melting point amounted to 200 °C.

The molecule `C=CCOC1=C(O)[C@@H](CC/C=C\CCCCCCCCCCCCCC)OC1=O` returned a melting point of 49 to 53 °C.

In turn, `Nc1nc2ccc(CO)cc2n1Cc1cccc2cccnc12` yielded a melting point of 230 °C.

On to `COc1ccc2[nH]cc(-c3cc4c(OC)ncnc4n3S(=O)(=O)c3ccc(C)cc3)c2c1`, for which the melting point is 131 °C.

`COc1ccc2c(c1)N(CCNC(C)=O)C(c1ccccc1)CO2` (centres undefined) registered a melting point of 125 to 126 °C.

`COc1ncnc(OC)c1NC(=O)c1cccs1` registered a melting point of 198 to 200 °C.

On to `N#C/C=C/c1ccc(Cl)cc1Cl`, for which the melting point was 156 °C.

`COc1cc(C(=O)c2cccnc2)cc([N+](=O)[O-])c1O` came in with a melting point of 193 °C.

The molecule `O=C1COc2ccc(C3=C(c4ccc(Cl)cc4Cl)C(=O)OC3)cc2N1` returned a melting point of 233 to 234 °C.

In the case of `O=C(O)C1=Cc2cc(Cl)c(Oc3ccc(C(F)(F)F)cc3)cc2OC1C(F)(F)F` (centres undefined), the melting point was in the range of 231 to 232 °C.

Molecule `CCNC(=O)c1ccc(N2CCN(Cc3cnc4c(c3)[nH]c(=O)n3cccc43)CC2)c(F)c1` displayed a melting point of 263 to 267 °C.

`NC(=O)c1ccc2c(c1)C(=O)N1CCC[C@H]1CO2`: the melting point fell in the range of 287 to 290 °C.

`O=C(O)CCc1cc2c(c(Br)c1Br)OCC2` displayed a melting point of 224 to 226 °C.

In turn, `CC(C(=O)O)c1cccc(C(=O)c2cc3cc(C(=O)O)sc3s2)c1` (centres undefined) gave a melting point of 244 °C.

With `CC(C)c1c(Sc2cccc(Cl)c2)nc(CO)n1C`, the melting point was 105 to 106 °C.

`CS(=O)(=O)Oc1ccc(N2CC(COc3ccc(C(=O)O)cc3)CC2=O)cc1` (centres undefined) had a melting point of 199 to 201 °C.

The molecule `CCOc1nc(Cl)nc2c1oc1nc(-c3ccccc3)cc(C)c12` came in with a melting point of 131 to 132 °C.

As for `CN(c1ccc(F)c2cc(-c3nccs3)[nH]c12)S(=O)(=O)c1cccs1`, the melting point is 197 to 198 °C.

The molecule `Cc1noc(C)c1S(=O)(=O)N(C)c1ccc(Cl)cc1[N+](=O)[O-]` displayed a melting point of 99 to 101 °C.

The molecule `O=[N+]([O-])N=C1NCCCN1CC1CCOC1` (centres undefined) displayed a melting point of 87.5 to 90.8 °C.

Consider `Nc1ccc(F)c(N2C(=O)C3=C(CCCC3)C2=O)c1`, for which the melting point lay in the range of 134 to 136 °C.

For the molecule `CCCCN(CCCC)c1ccc(C=Cc2ccc(C=CC3=C(C#N)C(=C(C#N)C#N)OC3(c3ccccc3)C(F)(F)F)s2)c(OC)c1` (centres undefined), the melting point was 203 to 204 °C.

In turn, `CCOC(=O)C1=C(C)NC(C)=C(C(=O)OCC)C1c1cc(Br)ccc1F` yielded a melting point of 118 to 119 °C.

As to `CN1C(=O)CN(c2cccc(Br)c2)NC1=O`, the melting point lay within 165 to 166 °C.

`COc1ccc(C(=O)/C(=C\c2ccccc2)C(=O)OC(C)(C)C)c(O)c1` returned a melting point of 105 to 107 °C.

The molecule `O=c1[nH]c2cccnc2n1-c1ccc2c(c1)COC2` showed a melting point of 243 °C.

Molecule `OC1(c2cccc(C(F)(F)F)c2)CCN(CCc2ccc3ncccc3c2)CC1` came in with a melting point of 140 to 142 °C.

On to `CC1CCC2(OC1)OC1CC3C4CCC5CC(OCCO)CCC5(C)C4CCC3(C)C1C2C` (centres undefined), for which the melting point lay in the range of 207 to 208 °C.

Take `CC1(C2=C(O)C(=O)c3ccccc3C2=O)CCCC1`: the melting point lay within 116 to 118 °C.

Turning to `C[C@@H](N(CCO)C(=O)c1ccc(C(F)(F)F)cc1)[C@](O)(Cn1cncn1)c1ccc(Cl)cc1Cl` (relative stereo), the melting point is 185 to 189 °C.

Molecule `CNN1c2c(cc(Oc3ccc(F)cc3F)c(=O)n2NC)C=NC1NC1CCOCC1` (centres undefined) had a melting point of 80.5 to 89.9 °C.

Turning to `COC(=O)C1CSC(c2cc3ccccc3[nH]2)=N1` (centres undefined), the melting point is 141 to 142 °C.

As to `CCOC(=O)C1=C(C)NC(=S)N(C(=O)OCC)C1c1cccc(OC)c1` (centres undefined), the melting point was in the range of 107 to 109 °C.

`COC(=O)c1cccc(OCCN2CCN(c3cc(Cl)nnc3Cl)CC2)c1` displayed a melting point of 105 to 107 °C.

Regarding `O=C(Nc1cccc(C(=O)Nc2ccccc2)c1)Nc1nnc(-c2cc(Cl)cc(Cl)c2O)s1`, the melting point was determined as 298 °C.

As to `Cn1ccnc1Sc1ccc(Nc2c(C#N)cnc3cc(Br)ccc23)cc1Cl`, the melting point was in the range of 258 to 261 °C.

For `COc1ccc(OC)c2c1CCC(C#N)C2C#N` (centres undefined), the melting point fell in the range of 126 to 127 °C.
